Measurements: article PMC5829097, “Designing Antibacterial Peptides with Enhanced Killing Kinetics” (Frontiers in Microbiology, 2018)
Marks after values point to notes of the source that are not given here. Square brackets hold non-standard residues; d marks the D form. Peptide text beside a SMILES is read from it. 12Ado = NCCCCCCCCCCCC(=O)O

Legend:
[1] = system: Escherichia coli ATCC 8739; assay: Antimicrobial assay, microdilution method (MIC; % death fitted to Hill equation); assay type: cell-based; settings: for Hill coefficient n, Gram −ve (E. coli 8739): Hill fit of % death after 18 h incubation vs peptide concentration; for EC50: Hill fit of % death after 18 h incubation, peptide concentration for 50% death, peptides tested in μM, unit inferred, read-out: half saturation constant K, Gram −ve (E. coli 8739)
Protocol: (§1) Antimicrobial activity of peptides against Gram-positive (Staphylococcus aureus ATCC 25923, S. aureus ATCC 6538P) and Gram-negative (Escherichia coli ATCC 25922, E. coli ATCC 8739) bacteria were determined by microdilution method. Bacterial cultures were grown in Mueller–Hinton (MH) broth at 37°C for 18 h on a shaker to obtain an OD600 nm of 0.8. The cultures were diluted in MH broth to obtain a cell density of 10^5-10^6 c.f.u/ml. The peptides were serially diluted in MH broth. The serially diluted peptides were inoculated with bacterial cultures in 1:1 ratio in sterile 96-well microtiter plates. A bovine myeloid antimicrobial peptide, BMAP28(1–18), was used as the positive control. The peptides were tested for antimicrobial activity in the range from 1 to 100 μM. The MICs of the peptides were determined by OD600 nm measurements after 18 h of incubation at 37°C. Bacterial strains were purchased from National Collection of Industrial Microorganisms, National Chemical Laboratories, Pune, India. The percentage death evaluated for S. aureus ATCC 25923 and E. coli ATCC 8739 after 18 h incubation was fitted to a Hill equation and the parameters namely Hill coefficient (n) and the half-saturation constant (K) were evaluated (Details in Supplementary File).
(§2) The % death value after 18h incubation of the organisms (E. coli ATCC 8739 and S. aureus ATCC 25923) with the peptides was fitted using the Hill equation: […]
(§3) The percentage death was fitted to a sigmoidal input-output relationship through Hill's Equation as given below.
(§4) Here, Y is the normalized percentage death taking values in the range [0,1] and X is the concentration of the antimicrobial peptide. The data for value of Y was obtained through experiments. It can be noted that the Hill's Equation has two parameters namely, n and K, Hill's Coefficient and Half Saturation Constant, also referred to as K0.5. The values of the parameters are specific to a system. The Hill Equation can be linearized as follows.
(§5) The linear equation was fitted by plotting LHS of the above equation versus ln(X). The slope of the best fit line equation (linear regression) will yield the value of Hill's coefficient and the value of the intercept can be further used to evaluate the value of the half saturation constant, K. The Hill coefficient (n) determines the sensitivity of the response (steepness of the sigmoidal curve) and the half saturation constant (K) determines the threshold input needed for the response (equivalent to EC50 value).

[2] = system: Staphylococcus aureus ATCC 25923; assay: as above; assay type: cell-based; settings: for Hill coefficient n, Gram +ve (S. aureus 25923): Hill fit of % death after 18 h incubation vs peptide concentration; for EC50: Hill fit of % death after 18 h incubation, peptide concentration for 50% death, peptides tested in μM, unit inferred, read-out: half saturation constant K, Gram +ve (S. aureus 25923)
Protocol: as §1, §2, §3, §4, §5

human RBCs = assay: Cytotoxicity assay against human erythrocytes (hemolysis); assay type: cell-based; settings: pH 7.4
Protocol: Hemolysis was determined by incubating 10% (v/v) suspension of human RBCs in PBS (pH 7.4) with different concentrations of peptides [BMAP28(1–18), P1, and P1m] ranging from 1.56 to 100 μM at 37°C for 1 h. RBCs incubated with 0.1% Triton X-100 was used as the positive control and RBCs incubated with PBS was used as blank. The incubated mixtures were centrifuged at 500 × g for 5 min. The hemolytic activity of the peptides was determined by measuring the absorbance of the supernatant at 541 nm. The percent hemolysis was calculated using the equation:
H=(absorbance of sample−absorbance of blank/absorbance of positive control−absorbance of blank)×100
The percentage hemolysis (H) was fitted using a Hill function with respect to the peptide concentration.
The % hemolysis was fitted using Hill equation to obtain n and K values. These values are also referred in Table 4 in the main text.

S. aureus ATCC 25923 = assay: Killing kinetics assay (time-kill, first order death rate constant); assay type: cell-based, Staphylococcus aureus; settings: for behavior of the kinetic (death rate) constant as a function of peptide concentration: S. aureus time-kill, concentrations up to 50 μM; for Hills coefficient of death rate constant vs peptide concentration (initial saturating phase) / half saturation constant of death rate constant vs peptide concentration (initial saturating phase): fit Equations 1-3, S. aureus ATCC 25923
Protocol: Overnight grown culture (S. aureus ATCC 25923) was diluted in fresh MH broth and allowed to grow to obtain OD600 nm of 0.8. The culture was diluted in MH broth to obtain a cell density of 10^5-10^6 c.f.u/ml and was incubated with the peptides at various concentrations within the MIC range for each peptide [BMAP28(1–18), P1, and P1m] till a highest concentration of 50 μM. Aliquots were drawn at specific time intervals and plated after dilution on MH agar plates. The plates were incubated at 37°C for 24 h to obtain viable colonies for calculating the initial death rates of the peptides. The kinetic rate constant was determined by evaluation of c.f.u count at various time points ranging from 10 to 45 min. First order death rate constant was determined by plotting log(c.f.u) vs. time and the slope of linear fit yielded the death rate constant. Four to five time points were used to determine the rate constant. Only two time points were considered for death rate constant at very high concentration (50 μM) as complete killing occurred in the first 15 min.
To further study the effect of mutation on behaviour of peptides, the first order rate constant for the death of S. aureus ATCC 25923 was determined by performing time-kill assays using BMAP28(1-18), P1 and P1m. The following equations were obtained by the fit.
In the first phase, the rate constant saturated to about 28.5 h^-1 up to a peptide concentration of 30µM. […] The behaviour of the rate constant was captured as a product of two functions, namely, an initial region represented by Hills Equation indicating a saturating behaviour, and exponential increase post saturation (Equation 1-3). […] A Hills coefficient greater than 2 indicates a sensitive response requiring only about less than 9 fold change in the concentration to reach saturation. But a lower half saturation constant for BMAP28(1-18) indicates higher affinity of binding of the peptides to the cell membrane for BMAP28(1-18) compared to that for P1m. […] This dramatic effect was caused due to a single change in the residue of an amino-acid. It may be possible that the second phase for P1 may occur at a higher concentration of peptide.
The initial rate constant was determined by fitting the first order death kinetics. The CFU (C) of the organism/cell was determined experimentally in time. The first order rate constant, k, was evaluated by linear fitting the equation given below: […]

[3] = system: Escherichia coli ATCC 25922; assay: Antimicrobial assay, microdilution method (MIC); assay type: cell-based; settings: MH broth, 10^5-10^6 c.f.u/ml, 18 h, 37°C, OD600 nm, tested 1 to 100 μM, average range from triplicates of three independent experiments
Protocol: as §1

[4] = system: Staphylococcus aureus ATCC 6538P; assay: Antimicrobial assay, microdilution method (MIC); assay type: cell-based; settings: value marked *: 50% inhibition, MH broth, 18 h, 37°C, OD600 nm, triplicates of three independent experiments
Protocol: as §1

[5] = value marked *: 50% inhibition, microdilution, MH broth, 18 h, 37°C, OD600 nm, triplicates of three independent experiments
[6] = microdilution, MH broth, 10^5-10^6 c.f.u/ml, 18 h, 37°C, OD600 nm, tested 1 to 100 μM, average range from triplicates of three independent experiments

Compound | Hill coefficient n, Gram −ve (E. coli 8739) [1] | EC50 [1] [µM] | Hill coefficient n, Gram +ve (S. aureus 25923) [2] | EC50 [2] [µM] | half saturation constant K, Human RBCs (human RBCs) | behavior of the kinetic (death rate) constant as a function of peptide concentration (S. aureus ATCC 25923) | time sufficient to reduce the cell number by half (S. aureus ATCC 25923; at 50µM of the peptide) | death rate constant at 50µM of the peptide (S. aureus ATCC 25923; first order, slope of log(c.f.u) vs time, 50 µM, two time points) | Hills coefficient of death rate constant vs peptide concentration (initial saturating phase) (S. aureus ATCC 25923) | half saturation constant of death rate constant vs peptide concentration (initial saturating phase) (S. aureus ATCC 25923) [µM] | MIC, E. coli 25922 [3] | MIC, S. aureus 6538 P (* 50% inhibition) [4] | MIC, E. coli 8739 (* 50% inhibition) [1, 5] | MIC, S. aureus 25923 (* 50% inhibition) [2, 5] | MIC, E. coli 8739 [1, 6] | MIC, S. aureus 25923 [2, 6]
CC[C@H](C)[C@H](NC(=O)[C@H](CCCCN)NC(=O)[C@H](CCCNC(=N)N)NC(=O)CNC(=O)[C@H](CC(C)C)NC(=O)[C@H](CO)NC(=O)[C@H](CCCNC(=N)N)NC(=O)[C@H](CC(C)C)NC(=O)CNC(=O)CNC(=O)CCCCCCCCCCCN)C(=O)N[C@@H](CC(C)C)C(=O)N[C@@H](CCCNC(=N)N)C(=O)N[C@@H](C)C(=O)N[C@@H](Cc1c[nH]c2ccccc12)C(=O)N[C@@H](CCCCN)C(=O)N[C@@H](CCCCN)C(=O)N[C@@H](Cc1ccc(O)cc1)C(=O)NCC(N)=O [BMAP28(1–18), reference compound] (H-[12Ado]GGLRSLGRKILRAWKKYG-NH2; N-terminus and C-terminus assumed) | 3.07 | 2.2 | 2.5 | 1.4 | 61.4 | biphasic behavior | about 40 s | about 60 h^-1 | 2.4 | 3.1 | – | – | – | – | – | –
CC[C@H](C)[C@H](NC(=O)CNC(=O)[C@H](CC(C)C)NC(=O)[C@@H](NC(=O)[C@@H](NC(=O)[C@H](CCCCN)NC(=O)[C@H](CCCNC(=N)N)NC(=O)[C@H](C)NC(=O)[C@H](CC(C)C)NC(=O)[C@H](C)NC(=O)[C@H](CCCNC(=N)N)NC(=O)[C@H](CC(C)C)NC(=O)[C@H](CC(C)C)NC(=O)[C@@H](NC(=O)CCCCCCCCCCCN)C(C)C)[C@@H](C)CC)[C@@H](C)O)C(=O)N[C@@H](CCCCN)C(=O)N[C@@H](CCCCN)C(=O)N[C@@H](Cc1ccc(O)cc1)C(=O)NCC(N)=O [P1] (H-[12Ado]VLLRALARKITLGIKKYG-NH2) | 1.02 | 26.6 | 1.2 | 3 | 170 | monophasic behavior | – | – | 2.3 | 8.4 | – | – | – | – | – | –
CILRWLARKIPWHAKKYG [P2, designed 18-residue MAP-family-like peptide, N-terminal amino-lauric acid and C-terminal amide] | – | – | – | – | – | – | – | – | – | – | NA (NA-inactive upto 100μM) | 12.5–25^* μM | 50–100^* μM | 50–100^* μM | – | –
VFLRILVRKIAPGVKKYG [P3, designed 18-residue MAP-family-like peptide, N-terminal amino-lauric acid and C-terminal amide] | – | – | – | – | – | – | – | – | – | – | NA (NA-inactive upto 100μM) | 50–100^* μM | – | – | NA (NA-inactive upto 100μM) | NA (NA-inactive upto 100μM)
